Results: ChEMBL document CHEMBL3400016, “Isolation, synthesis and anti-hepatitis B virus evaluation of p-hydroxyacetophenone derivatives from Artemisia capillaris” (Bioorg Med Chem Lett, 2015)

Tests used:
[1] = Cytotoxicity against human HepG 2.2.15 cells by MTT assay; assay type: cell-based, HepG2 2.2.15
[2] = Selectivity index, ratio of CC50 for human HepG2.2.15 cells to IC50 for decrease in hepatitis B viral surface antigen HBsAg secretion in human HepG2(2.2.15) cells; assay type: functional
Hepatitis B virus [3] = assay: Antiviral activity against hepatitis B viral in human HepG2.2.15 cells assessed as […] antigen HBeAg secretion after 72 hrs by ELISA; assay type: functional, organism-based; conditions: HepG2 2.2.15, 72 h
Hepatitis B virus [4] = assay: Antiviral activity against hepatitis B viral in human HepG2.2.15 cells assessed as decrease in viral DNA replication treated for 7 days by real time PCR analysis; assay type: functional, organism-based; conditions: HepG2 2.2.15, 168 h
Hepatitis B virus [5] = assay: Antiviral activity against hepatitis B viral in human HepG2.2.15 cells assessed as surface antigen HBsAg secretion after 72 hrs by ELISA; assay type: functional, organism-based; conditions: HepG2 2.2.15, 72 h
[6] = Selectivity index, ratio of CC50 for human HepG2.2.15 cells to IC50 for decrease in hepatitis B viral DNA replication in human HepG2(2.2.15) cells; assay type: functional
[7] = Selectivity index, ratio of CC50 for human HepG2.2.15 cells to IC50 for decrease in hepatitis B viral […] antigen HBeAg secretion in human HepG2(2.2.15) cells; assay type: functional

Row | SMILES | IC50 (Hepatitis B virus [3]) [mM] | IC50 (Hepatitis B virus [4]) [µM] | IC50 (Hepatitis B virus [5]) [µM] | CC50 [1] [mM] | Selectivity Index [2] | Selectivity Index [6] | Selectivity Index [7]
1 | CC(=O)c1ccc(OC(=O)c2cccs2)cc1 | > 3.71 | > 927 | 3530 | > 3.71 | >1 | – | –
2 | CC(=O)c1ccc(OC(=O)/C=C/c2ccccc2)cc1 | > 2.87 | > 719 | 2400 | > 2.87 | >1.2 | – | –
3 | COc1cc(O[C@@H]2O[C@H](CO)[C@@H](O)[C@H](O)[C@H]2O)cc(O)c1C(C)=O | > 2.37 | 92 | > 2370 | > 2.37 | – | >25.7 | –
4 | CC(=O)c1ccc(O[C@@H]2O[C@H](CO[C@@H]3OC[C@@H](O)[C@H](O)[C@H]3O)[C@@H](O)[C@H](O)[C@H]2O)cc1 | > 2.6 | 38.5 | > 2600 | > 2.6 | – | >67.5 | –
5 | COc1cccc(/C=C/C(=O)Oc2ccc(C(C)=O)cc2)c1 | > 2.78 | > 696 | 1260 | > 2.78 | >2.2 | – | –
6 | COc1ccc(/C=C/C(=O)Oc2ccc(C(C)=O)cc2)cc1 | > 3.28 | > 820 | > 3280 | > 3.28 | – | – | –
7 | COc1ccc(/C=C/C(=O)Oc2ccc(C(C)=O)cc2)cc1OC | > 2.62 | 100 | 1040 | > 2.62 | >2.5 | >26 | –
8 | CC(=O)c1ccc(OC(=O)/C=C/c2ccc3c(c2)OCO3)cc1 | > 3.04 | > 759 | 1890 | > 3.04 | >1.6 | – | –
9 | COc1cc(/C=C/C(=O)Oc2ccc(C(C)=O)cc2)cc(OC)c1OC | > 2.42 | 115 | 286 | > 2.42 | >8.5 | >21.1 | –
10 | CC(=O)c1ccc(OC(=O)c2ccccc2)cc1 | > 3.35 | 837 | 2160 | > 3.35 | >1.5 | – | –
11 | COc1cc(C(=O)Oc2ccc(C(C)=O)cc2)cc(OC)c1OC | > 2.58 | 88.8 | 648 | 1.21 | 1.9 | 13.6 | –
12 | CC(=O)c1ccc(OC(=O)c2cccnc2)cc1 | > 3.3 | 154 | 546 | 3.01 | 5.5 | 19.5 | –
13 | CC(=O)c1ccc(OC(=O)c2ccco2)cc1 | > 4.05 | > 1010 | 1830 | > 4.05 | >2.2 | – | –
14 | COc1ccc(/C=C/C(=O)OC[C@H]2O[C@@H](Oc3ccc(C(C)=O)cc3)[C@H](O)[C@@H](O)[C@@H]2O)cc1 | > 2.08 | 18.5 | 782 | 1.54 | 2 | 83.2 | –
15 | CC(=O)c1ccc(O[C@@H]2O[C@H](COC(=O)c3ccco3)[C@@H](O)[C@H](O)[C@H]2O)cc1 | > 1.88 | 101 | 571 | 1.17 | 2.1 | 11.7 | –
16 | CC(=O)c1ccc(O[C@@H]2O[C@H](CO)[C@@H](O)[C@H](O)[C@H]2O)cc1 [PICEIN] | > 3.95 | 228 | > 3950 | > 3.95 | – | >17.3 | –

Further lines, with some results ahead:

Row | IC50 (Hepatitis B virus [3]) [mM] | IC50 (Hepatitis B virus [4]) [µM] | IC50 (Hepatitis B virus [5]) [µM] | SMILES | CC50 [1] [mM] | Selectivity Index [2] | Selectivity Index [6] | Selectivity Index [7]
17 | > 1.48 | 5.8 | 526 | COc1cc(/C=C/C(=O)OC[C@H]2O[C@@H](Oc3ccc(C(C)=O)cc3)[C@H](O)[C@@H](O)[C@@H]2O)cc(OC)c1OC | 0.925 | 1.8 | 160.3 | –
18 | 1.28 | 8 | 291 | CC(=O)c1ccc(O[C@@H]2O[C@H](COC(=O)/C=C/c3ccc(O)c(O)c3)[C@@H](O)[C@H](O)[C@H]2O)cc1 | 1.58 | 5.4 | >197.9 | 1.2
19 | 2.21 | > 777 | 1520 | CC(=O)c1ccc(OC(=O)/C=C/c2cccc(F)c2)cc1 | > 3.11 | >2 | – | >1.4
20 | 1.52 | > 828 | 1510 | CC(=O)c1ccc(OC(=O)/C=C/c2ccc(F)cc2)cc1 | > 3.31 | >2.2 | – | >2.2
21 | 1.71 | > 649 | 610 | CC(=O)c1ccc(OC(=O)/C=C/c2ccc(F)c(F)c2)cc1 | > 2.6 | >4.3 | – | >1.5
22 | > 1.74 | 67.3 | > 1740 | CC(=O)c1ccc(O[C@@H]2O[C@H](COC(=O)/C=C/c3ccccc3)[C@@H](O)[C@H](O)[C@H]2O)cc1 | > 1.74 | – | >25.9 | –
23 | > 1.52 | 16.8 | 499 | COc1cccc(/C=C/C(=O)OC[C@H]2O[C@@H](Oc3ccc(C(C)=O)cc3)[C@H](O)[C@@H](O)[C@@H]2O)c1 | > 1.52 | >3 | >90.5 | –
24 | > 1.45 | 8.8 | 696 | COc1ccc(/C=C/C(=O)OC[C@H]2O[C@@H](Oc3ccc(C(C)=O)cc3)[C@H](O)[C@@H](O)[C@@H]2O)cc1OC | > 1.45 | >2.1 | >165 | –
25 | > 1.47 | 74.4 | 698 | CC(=O)c1ccc(O[C@@H]2O[C@H](COC(=O)/C=C/c3ccc4c(c3)OCO4)[C@@H](O)[C@H](O)[C@H]2O)cc1 | > 1.47 | >2.1 | >19.8 | –
26 | > 1.45 | 22.8 | 434 | CC(=O)c1ccc(O[C@@H]2O[C@H](COC(=O)/C=C/c3cccc(F)c3)[C@@H](O)[C@H](O)[C@H]2O)cc1 | 0.828 | 1.9 | 36.5 | –
27 | > 1.52 | 64.8 | 613 | CC(=O)c1ccc(O[C@@H]2O[C@H](COC(=O)/C=C/c3ccc(F)cc3)[C@@H](O)[C@H](O)[C@H]2O)cc1 | 0.917 | 1.5 | >23.4 | –
28 | > 1.77 | 22.5 | 515 | CC(=O)c1ccc(O[C@@H]2O[C@H](COC(=O)/C=C/c3ccc(F)c(F)c3)[C@@H](O)[C@H](O)[C@H]2O)cc1 | 0.874 | 1.7 | 38.9 | –
29 | > 1.68 | 93.7 | 678 | CC(=O)c1ccc(O[C@@H]2O[C@H](COC(=O)c3ccccc3)[C@@H](O)[C@H](O)[C@H]2O)cc1 | 1.05 | 1.5 | 11.2 | –
30 | > 1.49 | 20.7 | 1350 | COc1cc(C(=O)OC[C@H]2O[C@@H](Oc3ccc(C(C)=O)cc3)[C@H](O)[C@@H](O)[C@@H]2O)cc(OC)c1OC | 0.89 | – | 42.9 | –
31 | > 1.65 | 103 | 1430 | CC(=O)c1ccc(O[C@@H]2O[C@H](COC(=O)c3cccnc3)[C@@H](O)[C@H](O)[C@H]2O)cc1 | > 1.65 | >1.2 | >16 | –
32 | > 1.71 | 31.4 | 301 | CC(=O)c1ccc(O[C@@H]2O[C@H](COC(=O)c3cccs3)[C@@H](O)[C@H](O)[C@H]2O)cc1 | 1.57 | 5.2 | 50.1 | –
33 | 1.85 | 306 | 786 | CC(=O)c1ccc(O)cc1 [4-HYDROXYACETOPHENONE] | 2.39 | 3 | 7.8 | 1.3
34 | > 1.74 | 2.9 | > 1740 | C[C@H](Cn1cnc2c(N)ncnc21)OCP(=O)(O)O [TENOFOVIR ANHYDROUS] | > 1.74 | – | >600.8 | –
